{"source": "patent US12427192B2", "about": "“Water soluble adjuvant and composition containing same” (Sumitomo Pharma Co., Ltd., priority 2019, dated 2025)", "key": {"[1]": {"tested_on": "MCA-A24/Kb-WT1 tumor cells", "experiment": "Test 5: enhancement of in vivo suppressive effect of vaccine on tumor growth", "set-up": "species or system mouse", "conditions": "27 days after tumor transplantation; vaccine 7 days before and 7 days after transplantation; compared with vehicle (group a); six mice per group; 100 ng Example 1 per body in group c; FIG. 2", "experimental": "Effect for Enhancing the In Vivo Suppressive Effect of Vaccine for Growth of Tumor Vaccine\nA suspension of 3-methylcholanthrene in corn oil was administered to a HLA-A*24:02 transgenic mouse intradermally at the ventral region. From the tumor generated at the administration site, HLA-A*2402/Kb-expressing tumor cells were obtained. Cell lines established by stably expressing WT1 antigen peptide (SEQ ID No. 2) in the cells (herein, also referred to as MCA-A24/Kb-WT1 tumor cells) were suspended in Hanks' Balanced Salt Solution and intradermally transplanted to the ventral region of HLA-A*24:02 transgenic mouse (5×10^5 cells per mouse). The mice made to receive a vehicle (Group a), a vaccine (Group b), or a vaccine containing the compound prepared in Example 1 (Group c) were classified. Six mice per group were used. Seven days before the tumor transplantation and seven days after the tumor transplantation, for the mice of Group a, a composition comprising water for injection was emulsified with an equal volume of Montanide ISA 51 VG and the emulsion was administered intradermally at the tail base area (0.1 mL per administration per mouse). […] The tumor diameter was measured 27 days after the tumor transplantation and the tumor volume was calculated."}, "[2]": {"tested_on": "HLA-A*24:02 transgenic mouse", "experiment": "Test 8: in vivo adjuvant activity, vaccine e (Peptide SEQ ID No. 18), IFNγ ELISPOT", "conditions": "added to vaccine e; 0.4 nmol per body, twice; FIG. 5", "experimental": "(§1) Evaluation of In Vivo Adjuvant Activity in HLA-A*24:02 Transgenic Mouse\nThe in vivo adjuvant activity of the compound of Example 1 was evaluated in the following procedure. To a vaccine prepared by mixing Peptide SEQ ID No. 18 prepared in Reference example 20 with Montanide ISA 51 VG (hereinafter, referred to as “vaccine e”) was added the compound prepared in Example 1 to prepare a vaccine. The vaccine was administered to a HLA-A*24:02 transgenic mouse, and the adjuvant activity of the vaccine was evaluated by the method of testing antigen-specific CTL induction. The TYAGCLSQIF in Peptide SEQ ID No. 18 corresponds to an antigen peptide derived from an HLA-A*24:02-restricted Or7c1 protein.\nThe character for inducing CTLs specific to the antigen peptide (SEQ ID No. 18) by vaccine e was evaluated by measuring whether IFNγ can be produced upon stimulation of splenocytes from the mouse with the peptide. In addition, the character for exerting in vivo adjuvant activity by the compound in Example 1 was evaluated by comparing the number of CTLs induced by vaccine e and the number of CTLs induced by the vaccine prepared by adding the compound prepared in Example 1 to vaccine e, and checking presence or absence of the increase on the number.\nSpecifically, Peptide of SEQ ID No. 18 was dissolved in DMSO, and then diluted with water for injection to concentrations of 3 mg/mL. […]"}, "[3]": {"tested_on": "HLA-A*24:02 transgenic mouse", "experiment": "Test 20: in vivo adjuvant activity, vaccine o (Compound of formula 5), IFNγ ELISPOT", "conditions": "added to vaccine o; 0.4 nmol per body, twice; FIG. 25", "experimental": "as §1\nThe in vivo adjuvant activity of the compound of Example 1 was evaluated in the following procedure. To a vaccine prepared by mixing Compound of formula 5 prepared in Reference example 22 with a preliminarily-emulsified composition (hereinafter, referred to as “vaccine o”) was added the compound prepared in Example 1 to prepare a vaccine. The vaccine was administered to a HLA-A*24:02 transgenic mouse, and the adjuvant activity of the vaccine was evaluated by the method of testing antigen-specific CTL induction.\nSpecifically, Compound of formula 5 was dissolved in DMSO, and then diluted with water for injection to concentrations of Compound of formula 5 of 3 mg/mL. The prepared compound dilution was mixed with an equal volume of the preliminary emulsified composition prepared like Test 4 to give an emulsified product, vaccine o. Vaccine o was injected to mice intradermally at the tail base area in an amount for administering 300 μg of Compound of formula 5 per body. […] Then, after removal of the supernatant from the wells, stained spots on the ELISPOT plate were counted."}}, "data": [{"molecule": "CCCCCNc1nc(N)nc(C)c1Cc1ccc(CN(C)CCOCCOCCOCCOCCO)cc1OC", "note": "[Example 1, 1-(4-{[2-amino-4-methyl-6-(pentylamino)pyrimidin-5-yl]methyl}-3-methoxyphenyl)-2-methyl-5,8,11,14-tetraoxa-2-azahexadecan-16-ol·trifluoroacetate]", "values": [{"measurement": "growth of tumor cells (average tumor volume)", "setting": "[1]", "result": "more potently suppressed the growth of tumor cells"}, {"measurement": "CTL counts responsive to Peptide of SEQ ID No. 18 compared with adding no compound", "setting": "[2]", "result": "more"}, {"measurement": "CTL counts responsive to Peptide SEQ ID No. 2 compared with adding no compound", "setting": "[3]", "result": "more"}]}]}
